# From patent US10301280B2 (Plexxikon Inc., priority 2012, dated 2019)
# Test system: BaF3-FL KIT D816V or BaF3-FL KIT V560G/D816V cell line
# Experiment: Cell-based assays of c-Kit mutant kinase activity (cell growth, ATPlite)
# Conditions: at least one of the c-kit cell assays of Example 26
# Method: The c-Kit mutant D816V inhibitors were assessed using an engineered BaF3-FL KIT D816V or BaF3-FL KIT V560G/D816V cell line. The BaF3-FL KIT D816V cell lines were created by introduction of KIT mutant (D816V) full length constructs that render the cells dependent on the introduced kinase for growth. Inhibitors of c-Kit mutant D816V kinase reduce or eliminate the mediated c-kit mutant D816V kinase activation, resulting in reduced cell proliferation of the BaF3-FL Kit mutant D816V cells. This inhibition is measured by the effect of compound concentration on cell growth to assess IC50 values. BaF3-FL KIT D816V cells were seeded at 1×10^4 cells per well of a 96 well cell culture plate in 50 μl of cell culture medium of RPMI Medium 1X (Invitrogen #11875-093) supplemented with 10% FBS (Invitrogen #10438), 1% Non Essential Amino Acids(Invitrogen #11140), 1% Penicillin Streptomycin (Invitrogen #15140), 1% L-Glutamine (Invitrogen #25030-081). Compounds were dissolved in DMSO at a concentration of 5 mM and were serially diluted 1:3 for a total of eight points and added to the cells to a final maximum concentration of 10 μM in 100 μl cell culture medium (final concentration 0.2% DMSO). Cells were also treated with Dasatinib as a positive control. The cells were incubated at 37° C., 5% CO2 for three days. ATPlite Buffer (Perkin Elmer #6016739) and substrate were equilibrated to room temperature, and enzyme/substrate Recombinant Firefly Luciferase/D-Luciferin was reconstituted. The cell plates were equilibrated to room temperature for 30 minutes, then lysed by addition of 25 uL per well of the ATPlite Reagent. The plate was mixed for 5 minutes on a plate shaker to lyse the cells. The plates were read on a Tecan Safire using Luminescence protocol modified to read 0.1 s per well. The luminescence reading assesses the ATP content, which correlates directly with cell number such that the reading as a function of compound concentration is used to determine the IC50 value.
# Plasmids P75635 and P75565 were engineered for mammalian cell expression. In both plasmids, full-length human v-kit Hardy-Zuckerman 4 feline sarcoma viral oncogene homolog gene (NCBI accession NM_000222, KIT, residues M1-V976) was subcloned into the pCI-Neo vector (Promega E1841). Plasmid P75635 contains the mutation of residue Aspartic acid 816 to Valine. Plasmid P75565 contains the double mutation of residues Valine 560 to Glycine and Aspartic acid 816 to Valine. The pCI-neo Mammalian Expression Vector carries the human cytomegalovirus (CMV) immediate-early enhancer/promoter region to promote constitutive expression of KIT and contains the neomycin phosphotransferase gene, a selectable marker.
# It is understood that the results of these assays may vary as assay conditions are varied. Inhibition levels determined under the conditions described herein represent a relative activity for the compounds tested under the specific conditions employed. The cell based assays are likely to show variability due to the complexity of the system and the sensitivity thereof to any changes in the assay conditions. […] In some instances, the compounds were not tested in all of the assays, or assay results were not valid.
row,Structure (SMILES),IC50 [µM]
1,"Cc1[nH]nc(C(=O)Nc2cnc3[nH]c(-c4ccnc(F)c4)cc3c2)c1C [P-2245, N-(2-(2-fluoropyridin-4-yl)-1H-pyrrolo[2,3-b]pyridin-5-yl)-4,5-dimethyl-1H-pyrazole-3-carboxamide]",< 10
2,"Cc1[nH]nc(C(=O)Nc2cnc3[nH]c(-c4ccnc(NC5CC5)c4)cc3c2)c1C [P-2204, N-(2-(2-(cyclopropylamino)pyridin-4-yl)-1H-pyrrolo[2,3-b]pyridin-5-yl)-4,5-dimethyl-1H-pyrazole-3-carboxamide]",< 10
3,"Cc1n[nH]c(C(=O)Nc2cnc3[nH]c(-c4cnn(C)c4C)cc3c2)c1C [P-2084, N-[2-(1,5-dimethylpyrazol-4-yl)-1H-pyrrolo[2,3-b]pyridin-5-yl]-3,4-dimethyl-1H-pyrazole-5-carboxamide]",< 10
4,"Cc1n[nH]c(C(=O)Nc2cnc3[nH]c(-c4cnn(C5CCN(C(=O)OC(C)(C)C)CC5)c4)cc3c2)c1C [P-2306, tert-butyl 4-[4-[5-[(3,4-dimethyl-1H-pyrazole-5-carbonyl)amino]-1H-pyrrolo[2,3-b]pyridin-2-yl]pyrazol-1-yl]piperidine-1-carboxylate]",< 10
5,"Cc1n[nH]c(C(=O)Nc2cnc3[nH]c(-c4cccc5c4OCCO5)cc3c2)c1C [P-2305, N-[2-(2,3-dihydro-1,4-benzodioxin-5-yl)-1H-pyrrolo[2,3-b]pyridin-5-yl]-3,4-dimethyl-1H-pyrazole-5-carboxamide]",< 10
6,"COc1ccc(-c2cc3cc(NC(=O)c4n[nH]c(C)c4C)cnc3[nH]2)c(OC)n1 [P-2242, N-(2-(2,6-dimethoxypyridin-3-yl)-1H-pyrrolo[2,3-b]pyridin-5-yl)-4,5-dimethyl-1H-pyrazole-3-carboxamide]",< 10
7,Cc1cc(Cl)ccc1-c1cc2cc(NC(=O)c3n[nH]c(C)c3C)cnc2[nH]1 [P-2258],< 10
8,"CC(=O)N1CCN(c2cc(-c3cc4cc(NC(=O)c5n[nH]c(C)c5C)cnc4[nH]3)ccn2)CC1 [P-2214, N-(2-(2-(4-acetylpiperazin-1-yl)pyridin-4-yl)-1H-pyrrolo[2,3-b]pyridin-5-yl)-4,5-dimethyl-1H-pyrazole-3-carboxamide]",< 10
9,"Cc1cc2cc(NC(=O)c3[nH]nc(C)c3C)cnc2[nH]1 [P-2302, 3,4-dimethyl-N-(2-methyl-1H-pyrrolo[2,3-b]pyridin-5-yl)-1H-pyrazole-5-carboxamide]",< 10
10,"Cc1nn(C2CCN(C(=O)C3CC3)CC2)cc1-c1cc2cc(NC(=O)c3n[nH]c(C)c3C)cnc2[nH]1 [P-2203, N-(2-(1-(1-(cyclopropanecarbonyl)piperidin-4-yl)-3-methyl-1H-pyrazol-4-yl)-1H-pyrrolo[2,3-b]pyridin-5-yl)-4,5-dimethyl-1H-pyrazole-3-carboxamide]",< 10
11,"Cc1[nH]nc(C(=O)Nc2cnc3[nH]c(-c4ccnc(N5CCCCC5)c4)cc3c2)c1C [P-2209, 4,5-dimethyl-N-(2-(2-(piperidin-1-yl)pyridin-4-yl)-1H-pyrrolo[2,3-b]pyridin-5-yl)-1H-pyrazole-3-carboxamide]",< 10
12,"Cc1n[nH]c(C(=O)Nc2cnc3[nH]c(-c4ccnc(C5CC5)c4)cc3c2)c1C [P-2108, N-[2-(2-cyclopropyl-4-pyridyl)-1H-pyrrolo[2,3-b]pyridin-5-yl]-3,4-dimethyl-1H-pyrazole-5-carboxamide]",< 10
13,"Cc1[nH]nc(C(=O)Nc2cnc3[nH]c(-c4cnn(C5CCN(C(=O)C6CC6)CC5)c4C)cc3c2)c1C [P-2200, N-(2-(1-(1-(cyclopropanecarbonyl)piperidin-4-yl)-5-methyl-1H-pyrazol-4-yl)-1H-pyrrolo[2,3-b]pyridin-5-yl)-4,5-dimethyl-1H-pyrazole-3-carboxamide]",< 10
14,"Cc1[nH]nc(C(=O)Nc2cnc3[nH]c(-c4cccnc4C(F)(F)F)cc3c2)c1C [P-2241, 4,5-dimethyl-N-(2-(2-(trifluoromethyl)pyridin-3-yl)-1H-pyrrolo[2,3-b]pyridin-5-yl)-1H-pyrazole-3-carboxamide]",< 10
15,"Cc1[nH]nc(C(=O)Nc2cnc3[nH]c(-c4ccnc(N5CCCC5)c4)cc3c2)c1C [P-2208, 4,5-dimethyl-N-(2-(2-(pyrrolidin-1-yl)pyridin-4-yl)-1H-pyrrolo[2,3-b]pyridin-5-yl)-1H-pyrazole-3-carboxamide]",< 10
16,"Cc1[nH]nc(C(=O)Nc2cnc3[nH]c(-c4ccnc(C(=O)N5CCOCC5)c4)cc3c2)c1C [P-2216, 4,5-dimethyl-N-(2-(2-(morpholine-4-carbonyl)pyridin-4-yl)-1H-pyrrolo[2,3-b]pyridin-5-yl)-1H-pyrazole-3-carboxamide]",< 10

# Next, values leading:
row,IC50 [µM],Structure (SMILES)
1,< 10,"Cc1n[nH]c(C(=O)Nc2cnc3[nH]c(-c4ccc(P(C)(C)=O)cc4)cc3c2)c1C [P-2127, N-[2-(4-dimethylphosphorylphenyl)-1H-pyrrolo[2,3-b]pyridin-5-yl]-3,4-dimethyl-1H-pyrazole-5-carboxamide]"
2,< 10,"CCc1n[nH]c(C(=O)Nc2cnc3[nH]c(-c4ccc(F)cc4)cc3c2)c1C [P-2028, 3-ethyl-N-[2-(4-fluorophenyl)-1H-pyrrolo[2,3-b]pyridin-5-yl]-4-methyl-1H-pyrazole-5-carboxamide]"
3,< 10,"CC(=O)Nc1ccc(-c2cc3cc(NC(=O)c4[nH]nc(C)c4C)cnc3[nH]2)cn1 [P-2133, N-[2-(6-acetamido-3-pyridyl)-1H-pyrrolo[2,3-b]pyridin-5-yl]-3,4-dimethyl-1H-pyrazole-5-carboxamide]"
4,< 10,"O=C(Nc1cnc2[nH]c(-c3ccccc3)cc2c1)c1cccnn1 [P-2014, N-(2-phenyl-1H-pyrrolo[2,3-b]pyridin-5-yl)pyridazine-3-carboxamide]"
5,< 10,"Cc1n[nH]c(C(=O)Nc2cnc3[nH]c(-c4ccc(C(=O)N5CCCC5)cc4)cc3c2)c1C [P-2101, 3,4-dimethyl-N-[2-[4-(pyrrolidine-1-carbonyl)phenyl]-1H-pyrrolo[2,3-b]pyridin-5-yl]-1H-pyrazole-5-carboxamide]"
6,< 10,"O=C(Nc1cnc2[nH]c(-c3ccc(F)cc3)cc2c1)c1cc(C(F)(F)F)n[nH]1 [P-2156, N-[2-(4-fluorophenyl)-1H-pyrrolo[2,3-b]pyridin-5-yl]-3-(trifluoromethyl)-1H-pyrazole-5-carboxamide]"
7,< 10,"Cc1ccccc1-c1cc2cc(NC(=O)c3[nH]nc(C)c3C)cnc2[nH]1 [P-2097, 3,4-dimethyl-N-[2-(o-tolyl)-1H-pyrrolo[2,3-b]pyridin-5-yl]-1H-pyrazole-5-carboxamide]"
8,< 10,CCOC(=O)CCNC(=O)Nc1cnc2[nH]c(-c3ccccc3)cc2c1 [P-2006]
9,< 10,"CCN(CC)C(=O)c1cc(-c2cc3cc(NC(=O)c4n[nH]c(C)c4C)cnc3[nH]2)ccn1 [P-2230, 4-(5-(4,5-dimethyl-1H-pyrazole-3-carboxamido)-1H-pyrrolo[2,3-b]pyridin-2-yl)-N,N-diethylpicolinamide]"
10,< 10,"Cc1n[nH]c(C(=O)Nc2cnc3[nH]c(-c4ccc(C(=O)N5CCOCC5)cc4)cc3c2)c1C [P-2138, 3,4-dimethyl-N-[2-[4-(morpholine-4-carbonyl)phenyl]-1H-pyrrolo[2,3-b]pyridin-5-yl]-1H-pyrazole-5-carboxamide]"
11,< 10,"COc1ccccc1-c1cc2cc(NC(=O)c3[nH]nc(C)c3C)cnc2[nH]1 [P-2135, N-[2-(2-methoxyphenyl)-1H-pyrrolo[2,3-b]pyridin-5-yl]-3,4-dimethyl-1H-pyrazole-5-carboxamide]"
12,< 10,"Cc1n[nH]c(C(=O)Nc2cnc3[nH]c(-c4ccc(C#N)cc4)cc3c2)c1C [P-2092, N-[2-(4-cyanophenyl)-1H-pyrrolo[2,3-b]pyridin-5-yl]-3,4-dimethyl-1H-pyrazole-5-carboxamide]"
13,< 10,"Cc1n[nH]c(C(=O)Nc2cnc3[nH]c(-c4ccncc4)cc3c2)c1C [P-2124, 3,4-dimethyl-N-[2-(4-pyridyl)-1H-pyrrolo[2,3-b]pyridin-5-yl]-1H-pyrazole-5-carboxamide]"
14,< 10,"Cc1n[nH]c(C(=O)Nc2cnc3[nH]c(-c4cccc(C(=O)N5CCOCC5)c4)cc3c2)c1C [P-2106, 3,4-dimethyl-N-[2-[3-(morpholine-4-carbonyl)phenyl]-1H-pyrrolo[2,3-b]pyridin-5-yl]-1H-pyrazole-5-carboxamide]"
